Active and inactive are the calls of the source.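 The calls were made as follows: active = IC50 at or below 10 µM; inactive = IC50 above 10 µM.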 Bounds are passed on as bounds.

In this test the target is Lytic switch protein BZLF1 (Epstein-Barr virus (strain B95-8)) (UniProt P03206). As to the kind of experiment: EBV ZTA inhibitors, concentration series – biochemical, fluorescence polarization, dose response, round 0, counter-screen for EBNA-1 inhibitor project, late-stage follow-up (AID 488998). The settings on record: purified Zta–Cy5 ZRE DNA binding. A general note: Polarisation of emitted light reports the rotation of a fluorescent probe.
Sequence of Lytic switch protein BZLF1 (Epstein-Barr virus (strain B95-8)) (P03206 whole entry, looked up): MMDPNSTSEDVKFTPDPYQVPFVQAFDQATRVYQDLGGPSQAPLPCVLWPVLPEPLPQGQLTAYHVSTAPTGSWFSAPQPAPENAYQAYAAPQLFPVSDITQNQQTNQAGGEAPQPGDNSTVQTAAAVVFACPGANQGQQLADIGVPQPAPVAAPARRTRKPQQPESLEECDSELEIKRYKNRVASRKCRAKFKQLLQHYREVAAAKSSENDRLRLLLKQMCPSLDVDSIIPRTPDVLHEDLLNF

A word on the IC50: it is the point on the concentration scale where inhibition reaches its midpoint. Consider `COc1cccc2sc(NC(=O)c3ccc(C)c(C)c3)nc12`, for which the IC50 was > 111 µM (inactive).
As to `Cc1ccccc1-n1nnnc1SCC(=O)c1cc(C)n(CC2CCCO2)c1C` (stereo not given), the IC50 is > 111 µM (inactive).
`Cc1cc(C(=O)CSc2nnnn2-c2cccc(F)c2)c(C)n1CC1CCCO1` (stereo not given): the IC50 is > 111 µM (inactive).
For the molecule `Cc1cc(C(=O)CSc2nnnn2-c2ccc(Cl)cc2)c(C)n1CC1CCCO1` (stereo not given), the IC50 is > 111 µM (inactive).
For the molecule `Cc1ccc(C(=O)Nc2nc3ccc(Br)cc3s2)cc1C`, the IC50 is > 111 µM (inactive).
Take `CCn1c(C)cc(C(=O)CSc2nnnn2-c2ccccc2)c1C`: the IC50 was > 111 µM (inactive).
In the case of `Cc1ccccc1C(=O)Nc1nc2ccc(S(C)(=O)=O)cc2s1`, the IC50 is > 111 µM (inactive).
With `Cc1ccc(C(=O)Nc2nc3cc(F)ccc3s2)cc1C`, the IC50 is > 111 µM (inactive).
For the molecule `O=C(CSc1nnnn1-c1ccccc1)c1ccn(CC2CCCO2)c1` (stereo not given), the IC50 was > 111 µM (inactive).
In the case of `CS(=O)(=O)c1ccc2nc(NC(=O)c3ccccc3F)sc2c1` it was > 111 µM (inactive).
`COc1cccc(C(=O)Nc2nc3ccc(S(C)(=O)=O)cc3s2)c1`: the IC50 is > 111 µM (inactive).
As for `COc1ccc2sc(NC(=O)c3ccc(C)c(C)c3)nc2c1`, the IC50 was > 111 µM (inactive).
Regarding `Cc1cc(C(=O)CSc2nnnn2C)c(C)n1CC1CCCO1` (stereo not given), the IC50 is > 111 µM (inactive).
Under `Cc1cc(C(=O)CSc2nnnn2-c2ccccc2)c(C)n1Cc1cccs1` stands > 111 µM (inactive); under `Cc1cccc(-n2nnnc2SCC(=O)c2cc(C)n(CC3CCCO3)c2C)c1` (stereo not given), > 111 µM (inactive); under `Cc1cc(C(=O)CSc2nnnn2C2CC2)c(C)n1CC1CCCO1` (stereo not given), > 111 µM (inactive).
In the case of `Cc1cc(C(=O)CSc2nnnn2-c2ccccc2)c(C)n1C` it was > 111 µM (inactive).
With `CS(=O)(=O)c1ccc2nc(NC(=O)c3cccc(F)c3)sc2c1`, the IC50 is > 111 µM (inactive).
As for `COCCn1c(C)cc(C(=O)CSc2nnnn2-c2ccccc2)c1C`, the IC50 is > 111 µM (inactive).
`COc1ccc(C(=O)Nc2nc3ccc(S(C)(=O)=O)cc3s2)cc1`: the IC50 is > 111 µM (inactive).
`CS(=O)(=O)c1ccc2nc(NC(=O)c3ccccc3Cl)sc2c1`: the IC50 was > 111 µM (inactive).
For `Cc1ccc(-n2nnnc2SCC(=O)c2cc(C)n(CC3CCCO3)c2C)cc1` (stereo not given), the IC50 is > 111 µM (inactive).
For `COc1ccc(-n2nnnc2SCC(=O)c2cc(C)n(CC3CCCO3)c2C)cc1` (stereo not given), the IC50 is > 111 µM (inactive).
For `Cc1cccc(C(=O)Nc2nc3ccc(S(C)(=O)=O)cc3s2)c1`, the IC50 is > 111 µM (inactive).
`CS(=O)(=O)c1ccc2nc(NC(=O)c3ccc(Cl)cc3)sc2c1`: the IC50 was > 111 µM (inactive).
Turning to `Cc1ccc(C(=O)Nc2nc3ccc(S(C)(=O)=O)cc3s2)cc1`, the IC50 was > 111 µM (inactive).
`COc1ccc2nc(NC(=O)c3ccc(C)c(C)c3)sc2c1`: the IC50 was > 111 µM (inactive).
As to `Cc1ccc(C(=O)Nc2nc3cc(Br)ccc3s2)cc1C`, the IC50 was > 111 µM (inactive).
In the case of `COc1ccccc1C(=O)Nc1nc2ccc(S(C)(=O)=O)cc2s1`, the IC50 is > 111 µM (inactive).
Regarding `CS(=O)(=O)c1ccc2nc(NC(=O)c3cccc(Cl)c3)sc2c1`, the IC50 was > 111 µM (inactive).
